Measurements: ChEMBL document CHEMBL1909046, “DrugMatrix in vitro pharmacology data”

Assays:
[1] = molecular target: Delta-type opioid receptor (Homo sapiens, UniProt P41143); type: cell membranes, HEK293, Membrane; also: in other assays of this panel Not Active means under 50% inhibition at 10 µM
[2] = molecular target: Tyrosine-protein kinase Lck (Homo sapiens, UniProt P06239); assay: DRUGMATRIX: Protein Tyrosine Kinase, LCK enzyme inhibition (substrate: Poly(Glu:Tyr)); type: cell-based, Insect cells; conditions: Not Active = under 50% inhibition at 10 µM
Chain of Tyrosine-protein kinase Lck (P06239 whole entry): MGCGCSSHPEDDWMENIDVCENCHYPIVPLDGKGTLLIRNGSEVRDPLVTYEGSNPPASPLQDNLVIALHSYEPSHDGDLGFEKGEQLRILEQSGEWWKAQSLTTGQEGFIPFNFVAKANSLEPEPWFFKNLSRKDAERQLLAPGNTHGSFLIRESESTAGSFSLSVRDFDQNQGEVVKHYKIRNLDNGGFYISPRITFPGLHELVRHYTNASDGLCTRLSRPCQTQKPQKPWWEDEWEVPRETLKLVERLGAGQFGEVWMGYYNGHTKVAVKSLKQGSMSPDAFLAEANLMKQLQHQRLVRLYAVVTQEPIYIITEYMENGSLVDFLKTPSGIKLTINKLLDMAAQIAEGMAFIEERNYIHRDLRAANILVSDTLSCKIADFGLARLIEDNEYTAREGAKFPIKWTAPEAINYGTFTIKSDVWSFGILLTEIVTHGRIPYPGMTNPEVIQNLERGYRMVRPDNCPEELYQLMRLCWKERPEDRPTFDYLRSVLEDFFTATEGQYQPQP

Substance-K receptor = molecular target: T1, Substance-K receptor (Homo sapiens, UniProt P21452); type: cell membranes, CHO, Membrane; also: in other assays of this panel Not Active means under 50% inhibition at 10 µM
T1 sequence (P21452 whole entry): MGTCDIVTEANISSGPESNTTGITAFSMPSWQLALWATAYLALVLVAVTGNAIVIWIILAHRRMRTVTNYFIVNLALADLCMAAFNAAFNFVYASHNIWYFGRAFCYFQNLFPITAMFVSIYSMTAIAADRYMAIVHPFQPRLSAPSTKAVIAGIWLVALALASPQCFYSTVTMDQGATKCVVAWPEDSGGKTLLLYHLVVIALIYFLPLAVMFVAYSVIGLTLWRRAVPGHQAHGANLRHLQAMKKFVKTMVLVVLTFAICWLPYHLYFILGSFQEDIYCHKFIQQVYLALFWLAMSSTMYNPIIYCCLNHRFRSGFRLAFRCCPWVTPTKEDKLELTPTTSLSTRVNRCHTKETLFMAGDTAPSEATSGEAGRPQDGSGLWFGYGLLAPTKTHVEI

[3] = molecular target: Matrix metalloproteinase-9 (Homo sapiens, UniProt P14780); assay: biochemical; type: cell-based;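 also: inhibition of isolated MMP-9 enzyme activity toward a synthetic peptide substrate, from the DrugMatrix protease screening panel; in other assays of this panel Not Active means under 50% inhibition at 10 µM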
Chain of Matrix metalloproteinase-9 (P14780 whole entry): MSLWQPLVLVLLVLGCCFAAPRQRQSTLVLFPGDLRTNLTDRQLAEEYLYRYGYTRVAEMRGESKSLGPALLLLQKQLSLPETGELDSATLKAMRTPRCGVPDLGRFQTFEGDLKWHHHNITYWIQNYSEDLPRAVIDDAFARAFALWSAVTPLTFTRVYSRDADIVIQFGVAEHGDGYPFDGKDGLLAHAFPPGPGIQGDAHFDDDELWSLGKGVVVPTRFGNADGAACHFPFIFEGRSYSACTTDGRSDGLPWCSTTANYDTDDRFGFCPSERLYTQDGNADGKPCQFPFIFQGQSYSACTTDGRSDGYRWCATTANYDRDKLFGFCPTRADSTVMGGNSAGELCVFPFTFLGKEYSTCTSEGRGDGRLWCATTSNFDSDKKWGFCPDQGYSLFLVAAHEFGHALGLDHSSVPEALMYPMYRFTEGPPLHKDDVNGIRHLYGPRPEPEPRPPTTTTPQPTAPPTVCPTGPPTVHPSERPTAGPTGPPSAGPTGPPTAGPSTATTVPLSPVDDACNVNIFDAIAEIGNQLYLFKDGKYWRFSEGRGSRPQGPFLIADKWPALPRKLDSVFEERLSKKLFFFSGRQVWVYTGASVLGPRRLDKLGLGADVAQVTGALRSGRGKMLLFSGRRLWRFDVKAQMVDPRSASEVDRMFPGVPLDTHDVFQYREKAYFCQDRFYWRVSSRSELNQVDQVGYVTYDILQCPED

Endothelin-1 receptor = molecular target: T2, Endothelin-1 receptor (Homo sapiens, UniProt P25101); type: cell membranes, CHO-K1, Membrane; also: in other assays of this panel Not Active means under 50% inhibition at 10 µM
T2 sequence (P25101 whole entry): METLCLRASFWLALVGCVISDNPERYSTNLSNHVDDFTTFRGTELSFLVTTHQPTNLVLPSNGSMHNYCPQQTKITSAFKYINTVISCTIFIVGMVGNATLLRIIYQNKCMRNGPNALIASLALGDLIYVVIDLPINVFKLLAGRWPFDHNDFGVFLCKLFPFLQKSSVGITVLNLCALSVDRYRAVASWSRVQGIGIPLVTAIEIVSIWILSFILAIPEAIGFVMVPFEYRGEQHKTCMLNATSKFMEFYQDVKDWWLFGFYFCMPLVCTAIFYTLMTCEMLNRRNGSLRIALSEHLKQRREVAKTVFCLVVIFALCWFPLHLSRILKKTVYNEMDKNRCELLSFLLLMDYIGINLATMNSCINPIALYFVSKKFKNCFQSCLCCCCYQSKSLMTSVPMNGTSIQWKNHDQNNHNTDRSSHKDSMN

[4] = molecular target: T3, Neuropeptide Y receptor type 1 (Homo sapiens, UniProt P25929); type: cell membranes, Membrane; conditions: sk-n-mc; also: in other assays of this panel Not Active means under 50% inhibition at 10 µM
T3 sequence (P25929 whole entry): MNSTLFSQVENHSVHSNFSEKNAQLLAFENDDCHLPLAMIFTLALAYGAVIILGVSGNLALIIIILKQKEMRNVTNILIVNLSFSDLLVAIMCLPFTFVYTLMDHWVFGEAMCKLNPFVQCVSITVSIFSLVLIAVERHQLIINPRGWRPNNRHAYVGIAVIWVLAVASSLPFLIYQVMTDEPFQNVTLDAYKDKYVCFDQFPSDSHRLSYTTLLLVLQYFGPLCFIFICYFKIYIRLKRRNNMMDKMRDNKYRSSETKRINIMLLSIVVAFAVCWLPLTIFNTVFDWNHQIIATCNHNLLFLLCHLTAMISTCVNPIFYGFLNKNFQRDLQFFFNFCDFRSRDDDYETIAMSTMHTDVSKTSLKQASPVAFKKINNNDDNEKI

Chain of Delta-type opioid receptor (P41143 whole entry): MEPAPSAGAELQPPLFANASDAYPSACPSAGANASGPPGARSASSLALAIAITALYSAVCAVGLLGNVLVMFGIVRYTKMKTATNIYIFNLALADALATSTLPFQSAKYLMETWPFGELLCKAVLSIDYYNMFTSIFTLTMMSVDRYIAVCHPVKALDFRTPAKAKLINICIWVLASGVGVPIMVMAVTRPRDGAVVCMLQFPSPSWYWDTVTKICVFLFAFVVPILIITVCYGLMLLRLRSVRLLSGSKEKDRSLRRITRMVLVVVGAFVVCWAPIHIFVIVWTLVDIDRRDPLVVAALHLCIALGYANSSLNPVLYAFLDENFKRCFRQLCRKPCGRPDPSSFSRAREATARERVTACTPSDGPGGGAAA

Row | Molecule | IC50 ([1]; hek293) | IC50 ([2]; insect cells) | IC50 (Substance-K receptor; cho) | IC50 [3] | IC50 (Endothelin-1 receptor; cho-k1) | IC50 [4] | other results
1 | CCOC(N)=O | Not Active | Not Active | Not Active | Not Active | Not Active | Not Active | –
2 | COc1ccc(CN2CCNCC2)c(OC)c1OC [TRIMETAZIDINE] | Not Active | Not Active | Not Active | Not Active | Not Active | Not Active | –
3 | CC(=O)O[C@H]1C[C@@H]2CC[C@@H]3[C@H](CC[C@@]4(C)[C@H]3C[C@H]([N+]3(C)CCCCC3)[C@@H]4OC(C)=O)[C@@]2(C)C[C@@H]1N1CCCCC1.[Br-] [VECURONIUM BROMIDE] | Not Active | Not Active | Not Active | Not Active | Not Active | Not Active | –
4 | C[C@@H]1C[C@H]2[C@@H]3CCC4=CC(=O)C=C[C@]4(C)C3=CC[C@]2(C)[C@H]1C(=O)CN1CCN(c2cc(N3CCCC3)nc(N3CCCC3)n2)CC1 [TIRILAZAD] | Not Active | – | Not Active | Not Active | Not Active | Not Active | IC50 ([2]; read-out: IC50): 15.8 µM
5 | CC(C)OC(=O)C(C)(C)Oc1ccc(C(=O)c2ccc(Cl)cc2)cc1 [FENOFIBRATE] | Not Active | Not Active | Not Active | Not Active | Not Active | Not Active | –
6 | C[C@@H](O)[C@H]1C(=O)N2C(C(=O)O)=C(S[C@@H]3CN[C@H](C(=O)N(C)C)C3)[C@H](C)[C@H]12 [MEROPENEM] | Not Active | Not Active | Not Active | Not Active | Not Active | Not Active | –
7 | CC[C@@H](CO)NC(=O)[C@@H]1C=C2c3cccc4c3c(cn4C)C[C@H]2N(C)C1 [METHYSERGIDE] | Not Active | Not Active | Not Active | Not Active | Not Active | Not Active | –
8 | CC(C)(C)NC[C@H](O)COc1nsnc1N1CCOCC1 [TIMOLOL] | Not Active | Not Active | Not Active | Not Active | Not Active | Not Active | –
9 | CCN(CC)CC#CCOC(=O)C(O)(c1ccccc1)C1CCCCC1 (stereo unspecified) [OXYBUTYNIN] | Not Active | Not Active | Not Active | Not Active | Not Active | Not Active | –
10 | O=c1[nH]c2ccccc2n1CCCN1CCC(n2c(=O)[nH]c3cc(Cl)ccc32)CC1 [DOMPERIDONE] | Not Active | Not Active | Not Active | Not Active | Not Active | Not Active | –
11 | CC1=C(CC(=O)O)c2cc(F)ccc2/C1=C\c1ccc(S(C)(=O)=O)cc1 [EXISULIND] | Not Active | Not Active | Not Active | Not Active | – | Not Active | IC50 (Endothelin-1 receptor; read-out: IC50): 9.85 µM; Ki (Endothelin-1 receptor; read-out: Ki): 6.06 µM
12 | COc1ncnc(NS(=O)(=O)c2ccc(N)cc2)c1OC [SULFADOXINE] | Not Active | Not Active | Not Active | Not Active | Not Active | Not Active | –
13 | CC(=O)Nc1nnc(S(N)(=O)=O)s1 [ACETAZOLAMIDE] | Not Active | Not Active | Not Active | Not Active | Not Active | Not Active | –
14 | CO[C@H]1C[C@@H]2CC[C@@H](C)[C@@](O)(O2)C(=O)C(=O)N2CCCC[C@H]2C(=O)O[C@H]([C@H](C)C[C@@H]2CC[C@@H](O)[C@H](OC)C2)CC(=O)[C@H](C)/C=C(\C)[C@@H](O)[C@@H](OC)C(=O)[C@H](C)C[C@H](C)/C=C/C=C/C=C/1C [SIROLIMUS] | Not Active | Not Active | Not Active | Not Active | Not Active | Not Active | –
15 | OCCN1CCN(CCCN2c3ccccc3Sc3ccc(C(F)(F)F)cc32)CC1 [FLUPHENAZINE] | – | Not Active | – | Not Active | Not Active | Not Active | IC50 ([1]; read-out: IC50): 24 µM; Ki ([1]; read-out: Ki): 8.47 µM; IC50 (Substance-K receptor; read-out: IC50): 22.5 µM; Ki (Substance-K receptor; read-out: Ki): 7.49 µM
16 | Cc1cn([C@H]2C[C@H](N=[N+]=[N-])[C@@H](CO)O2)c(=O)[nH]c1=O [ZIDOVUDINE] | Not Active | Not Active | Not Active | Not Active | Not Active | Not Active | –
17 | THIMEROSAL | Not Active | Not Active | Not Active | Not Active | Not Active | Not Active | Ki ([1]; hek293): Not Active; Ki ([2]; insect cells): Not Active; Ki (Substance-K receptor; cho): Not Active; Ki [3]: Not Active; Ki (Endothelin-1 receptor; cho-k1): Not Active; Ki [4]: Not Active
18 | NC[C@H]1O[C@H](O[C@H]2[C@H](O)[C@@H](O[C@H]3O[C@H](CO)[C@@H](O)[C@H](N)[C@H]3O)[C@H](N)C[C@@H]2N)[C@H](N)C[C@@H]1O [TOBRAMYCIN] | Not Active | Not Active | Not Active | Not Active | Not Active | Not Active | –
19 | O=P(O)(O)C(O)(Cc1cccnc1)P(=O)(O)O [RISEDRONIC ACID] | Not Active | Not Active | Not Active | Not Active | Not Active | Not Active | –
20 | Nc1ccc(S(=O)(=O)Nc2nccs2)cc1 [SULFATHIAZOLE] | Not Active | Not Active | Not Active | Not Active | Not Active | Not Active | –
21 | Nc1ccc(S(=O)(=O)Nc2ncccn2)cc1 [SULFADIAZINE] | Not Active | Not Active | Not Active | Not Active | Not Active | Not Active | –
22 | CN[C@@H]1[C@H](O)[C@H](NC)[C@H]2O[C@@]3(O)C(=O)C[C@@H](C)O[C@H]3O[C@@H]2[C@H]1O [SPECTINOMYCIN] | Not Active | Not Active | Not Active | Not Active | Not Active | Not Active | –
23 | COc1cc(N)nc2[nH]c(-c3ccc(F)cc3)c(-c3ccncc3)c12 | Not Active | – | Not Active | Not Active | Not Active | Not Active | –
24 | CN(CCOc1ccc(CC2SC(=O)NC2=O)cc1)c1ccccn1 (stereo unspecified) [ROSIGLITAZONE] | Not Active | Not Active | Not Active | Not Active | Not Active | Not Active | –
25 | C=C(C)[C@H]1Cc2c(ccc3c2O[C@@H]2COc4cc(OC)c(OC)cc4[C@@H]2C3=O)O1 [ROTENONE] | Not Active | Not Active | Not Active | Not Active | Not Active | Not Active | –
26 | O=c1n(CCCN2CCN(c3cccc(Cl)c3)CC2)nc2ccccn12 [TRAZODONE] | Not Active | Not Active | Not Active | Not Active | Not Active | Not Active | –
27 | O=C(O)C(Cl)(Cl)Cl [TRICHLOROACETIC ACID] | Not Active | Not Active | Not Active | Not Active | Not Active | Not Active | –
28 | CNS(=O)(=O)Cc1ccc2[nH]cc(CCN(C)C)c2c1 | Not Active | Not Active | Not Active | Not Active | Not Active | Not Active | –
